Measurements: the kinase profiling compilation of Christmann-Franck et al. (2016)

Assays:
Test in all cases: KINOMEscan competition binding
Settings in all cases: compound 10.0 µM
[1] = target: ACVR2B (human) (UniProt Q13705)
[2] = target: AURKB (human) (UniProt Q96GD4)
[3] = target: BMPR1A (human) (UniProt P36894)
[4] = target: CDKL2 (human) (UniProt Q92772)
[5] = target: CHEK1 (human) (UniProt O14757)
[6] = target: CIT (human) (UniProt O14578)
[7] = target: CSNK1D (human) (UniProt P48730)
[8] = target: CSNK2A1 (human) (UniProt P68400)
[9] = target: CaMK1 (human) (UniProt Q14012)
[10] = target: DCLK2 (human) (UniProt Q8N568)
Chain of DCLK2 (human) (Q8N568 whole entry, looked up): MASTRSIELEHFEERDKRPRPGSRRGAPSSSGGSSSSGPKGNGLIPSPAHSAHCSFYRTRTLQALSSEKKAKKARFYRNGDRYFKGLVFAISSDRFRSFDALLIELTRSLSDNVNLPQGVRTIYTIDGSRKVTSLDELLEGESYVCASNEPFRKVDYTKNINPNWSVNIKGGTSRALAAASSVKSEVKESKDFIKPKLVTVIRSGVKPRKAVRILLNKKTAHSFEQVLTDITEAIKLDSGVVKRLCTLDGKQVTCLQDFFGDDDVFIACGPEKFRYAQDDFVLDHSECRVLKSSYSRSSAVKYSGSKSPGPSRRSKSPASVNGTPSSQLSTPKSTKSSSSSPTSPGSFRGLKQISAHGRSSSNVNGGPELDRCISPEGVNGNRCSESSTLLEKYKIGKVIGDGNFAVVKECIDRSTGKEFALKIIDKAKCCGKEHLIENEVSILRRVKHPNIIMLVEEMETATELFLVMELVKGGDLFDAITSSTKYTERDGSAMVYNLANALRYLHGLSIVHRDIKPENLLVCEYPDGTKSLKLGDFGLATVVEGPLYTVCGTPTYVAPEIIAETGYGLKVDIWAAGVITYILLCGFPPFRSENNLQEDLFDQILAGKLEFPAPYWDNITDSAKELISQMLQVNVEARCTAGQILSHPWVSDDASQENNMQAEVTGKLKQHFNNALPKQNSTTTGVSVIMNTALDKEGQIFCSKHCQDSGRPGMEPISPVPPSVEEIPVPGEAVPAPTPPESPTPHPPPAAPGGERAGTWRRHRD

[11] = target: EPHB2 (human) (UniProt P29323)
[12] = target: ERBB4 (human) (UniProt Q15303)
[13] = target: FLT3 (human) (UniProt P36888)
[14] = target: FRK (human) (UniProt P42685)
[15] = target: LATS1 (human) (UniProt O95835)
[16] = target: LATS2 (human) (UniProt Q9NRM7)
Chain of LATS2 (human) (Q9NRM7 whole entry, looked up): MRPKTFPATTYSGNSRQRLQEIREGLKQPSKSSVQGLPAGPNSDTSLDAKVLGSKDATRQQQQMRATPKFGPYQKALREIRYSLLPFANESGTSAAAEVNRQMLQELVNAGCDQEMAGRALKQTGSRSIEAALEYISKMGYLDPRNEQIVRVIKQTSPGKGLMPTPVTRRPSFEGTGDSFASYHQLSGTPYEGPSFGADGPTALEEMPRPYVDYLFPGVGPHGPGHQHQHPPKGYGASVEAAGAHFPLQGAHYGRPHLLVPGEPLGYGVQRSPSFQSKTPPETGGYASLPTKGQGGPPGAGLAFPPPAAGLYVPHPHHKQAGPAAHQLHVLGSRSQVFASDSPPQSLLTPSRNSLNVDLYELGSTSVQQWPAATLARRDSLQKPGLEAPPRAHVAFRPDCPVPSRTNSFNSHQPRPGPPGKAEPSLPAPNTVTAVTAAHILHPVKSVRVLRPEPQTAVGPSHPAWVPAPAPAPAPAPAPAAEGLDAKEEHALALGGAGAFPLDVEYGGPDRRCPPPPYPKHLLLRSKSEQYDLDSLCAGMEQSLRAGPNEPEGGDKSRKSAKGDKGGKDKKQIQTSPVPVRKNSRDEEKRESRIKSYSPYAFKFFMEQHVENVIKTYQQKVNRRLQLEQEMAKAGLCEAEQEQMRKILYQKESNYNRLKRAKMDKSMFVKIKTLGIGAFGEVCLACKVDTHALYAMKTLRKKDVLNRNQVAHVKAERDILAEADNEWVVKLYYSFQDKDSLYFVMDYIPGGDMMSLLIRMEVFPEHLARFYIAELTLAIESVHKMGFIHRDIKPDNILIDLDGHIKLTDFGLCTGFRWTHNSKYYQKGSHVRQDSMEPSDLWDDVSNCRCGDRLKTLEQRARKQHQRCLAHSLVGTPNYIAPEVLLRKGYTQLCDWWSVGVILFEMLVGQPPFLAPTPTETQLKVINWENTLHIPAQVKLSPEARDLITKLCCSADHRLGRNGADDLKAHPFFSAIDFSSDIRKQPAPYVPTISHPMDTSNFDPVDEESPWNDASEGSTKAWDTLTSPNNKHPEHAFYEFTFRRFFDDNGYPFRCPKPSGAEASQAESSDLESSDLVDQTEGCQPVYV

[17] = target: MAP3K1 (human) (UniProt Q13233)
[18] = target: MAP3K5 (human) (UniProt Q99683)
[19] = target: MAP4K4 (human) (UniProt O95819)
Chain of MAP4K4 (human) (O95819 whole entry, looked up): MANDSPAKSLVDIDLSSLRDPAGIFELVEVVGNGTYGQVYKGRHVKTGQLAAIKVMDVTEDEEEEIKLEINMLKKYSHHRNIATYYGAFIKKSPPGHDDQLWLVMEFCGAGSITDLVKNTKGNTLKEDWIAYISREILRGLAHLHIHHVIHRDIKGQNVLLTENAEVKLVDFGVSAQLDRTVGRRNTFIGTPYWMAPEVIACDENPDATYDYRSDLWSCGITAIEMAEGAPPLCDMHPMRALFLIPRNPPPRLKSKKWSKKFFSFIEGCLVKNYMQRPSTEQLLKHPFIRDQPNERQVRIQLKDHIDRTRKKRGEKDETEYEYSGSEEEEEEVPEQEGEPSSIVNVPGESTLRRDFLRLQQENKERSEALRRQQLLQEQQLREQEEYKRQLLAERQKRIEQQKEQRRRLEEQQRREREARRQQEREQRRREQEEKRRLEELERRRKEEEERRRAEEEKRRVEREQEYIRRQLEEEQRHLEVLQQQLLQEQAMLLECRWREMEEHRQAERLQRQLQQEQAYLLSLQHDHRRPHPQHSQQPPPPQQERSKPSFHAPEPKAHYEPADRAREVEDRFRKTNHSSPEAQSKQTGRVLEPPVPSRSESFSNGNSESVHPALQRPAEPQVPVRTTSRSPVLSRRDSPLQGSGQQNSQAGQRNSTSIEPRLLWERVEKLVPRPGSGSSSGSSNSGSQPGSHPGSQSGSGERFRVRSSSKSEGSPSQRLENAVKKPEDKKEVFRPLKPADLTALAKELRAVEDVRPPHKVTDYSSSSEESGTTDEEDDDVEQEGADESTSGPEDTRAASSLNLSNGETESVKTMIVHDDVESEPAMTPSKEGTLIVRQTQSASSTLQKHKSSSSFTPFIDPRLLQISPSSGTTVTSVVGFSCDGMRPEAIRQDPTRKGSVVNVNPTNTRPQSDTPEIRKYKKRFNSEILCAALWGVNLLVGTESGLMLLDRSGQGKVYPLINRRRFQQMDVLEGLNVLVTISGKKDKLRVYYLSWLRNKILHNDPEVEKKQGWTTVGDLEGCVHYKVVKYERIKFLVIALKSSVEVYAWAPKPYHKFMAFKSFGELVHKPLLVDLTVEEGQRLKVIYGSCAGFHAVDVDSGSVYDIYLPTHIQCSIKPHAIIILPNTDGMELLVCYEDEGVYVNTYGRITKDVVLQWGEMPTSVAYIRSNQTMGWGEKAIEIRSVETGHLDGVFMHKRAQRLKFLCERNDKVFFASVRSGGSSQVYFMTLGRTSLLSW

[20] = target: MAPKAPK5 (human) (UniProt Q8IW41)
[21] = tested on: MET (human), P08581 [Y1235D]
[22] = target: MYLK (human) (UniProt Q15746)
[23] = target: NEK3 (human) (UniProt P51956)
[24] = target: PDGFRA (human) (UniProt P16234)
[25] = target: PIM2 (human) (UniProt Q9P1W9)
[26] = target: PKN2 (human) (UniProt Q16513)
[27] = target: PLK3 (human) (UniProt Q9H4B4)
[28] = target: PRKAA1 (human) (UniProt Q13131)
Chain of PRKAA1 (human) (Q13131 whole entry, looked up): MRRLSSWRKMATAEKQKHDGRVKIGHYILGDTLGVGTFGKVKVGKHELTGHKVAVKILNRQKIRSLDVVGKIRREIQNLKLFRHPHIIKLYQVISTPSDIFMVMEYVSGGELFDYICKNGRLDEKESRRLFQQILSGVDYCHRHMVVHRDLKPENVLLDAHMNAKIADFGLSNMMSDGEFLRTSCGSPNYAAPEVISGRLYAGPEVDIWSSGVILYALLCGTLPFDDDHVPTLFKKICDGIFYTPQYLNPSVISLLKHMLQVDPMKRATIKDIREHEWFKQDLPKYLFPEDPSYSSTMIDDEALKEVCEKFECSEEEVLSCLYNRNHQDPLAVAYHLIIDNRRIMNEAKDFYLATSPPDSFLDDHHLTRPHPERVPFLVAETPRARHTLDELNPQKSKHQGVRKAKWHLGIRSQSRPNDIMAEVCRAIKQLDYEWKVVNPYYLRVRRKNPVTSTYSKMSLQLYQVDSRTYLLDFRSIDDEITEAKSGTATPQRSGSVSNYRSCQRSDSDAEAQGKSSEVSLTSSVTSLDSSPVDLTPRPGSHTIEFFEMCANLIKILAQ

[29] = target: PRPF4B (human) (UniProt Q13523)
Chain of PRPF4B (human) (Q13523 whole entry, looked up): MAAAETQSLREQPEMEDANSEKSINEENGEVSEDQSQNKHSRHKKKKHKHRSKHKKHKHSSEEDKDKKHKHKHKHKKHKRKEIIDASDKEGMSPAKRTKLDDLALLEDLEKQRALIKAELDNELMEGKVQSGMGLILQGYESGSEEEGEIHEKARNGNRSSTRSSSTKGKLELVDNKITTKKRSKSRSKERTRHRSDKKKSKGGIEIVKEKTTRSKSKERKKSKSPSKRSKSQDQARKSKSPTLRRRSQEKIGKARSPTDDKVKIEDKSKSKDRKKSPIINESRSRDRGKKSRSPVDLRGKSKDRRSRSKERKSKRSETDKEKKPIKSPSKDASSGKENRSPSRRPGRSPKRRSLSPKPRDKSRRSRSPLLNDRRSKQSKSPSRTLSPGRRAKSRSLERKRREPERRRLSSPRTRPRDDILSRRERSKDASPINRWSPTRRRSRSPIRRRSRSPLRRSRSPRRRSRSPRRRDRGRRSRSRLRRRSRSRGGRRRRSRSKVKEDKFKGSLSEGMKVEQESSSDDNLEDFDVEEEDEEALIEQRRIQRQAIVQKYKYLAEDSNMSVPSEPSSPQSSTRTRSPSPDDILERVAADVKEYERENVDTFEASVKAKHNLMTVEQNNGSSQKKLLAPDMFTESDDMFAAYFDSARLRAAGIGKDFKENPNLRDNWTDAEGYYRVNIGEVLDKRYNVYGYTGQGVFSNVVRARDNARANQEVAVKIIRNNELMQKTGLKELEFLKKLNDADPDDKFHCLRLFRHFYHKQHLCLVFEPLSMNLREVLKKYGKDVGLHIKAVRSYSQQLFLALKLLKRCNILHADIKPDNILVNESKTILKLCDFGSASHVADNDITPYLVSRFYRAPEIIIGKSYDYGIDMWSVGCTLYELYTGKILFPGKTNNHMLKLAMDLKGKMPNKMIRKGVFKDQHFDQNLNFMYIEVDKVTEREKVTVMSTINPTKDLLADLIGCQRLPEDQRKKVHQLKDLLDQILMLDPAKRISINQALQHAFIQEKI

[30] = target: RPS6KA6 KD2 (human) (UniProt Q9UK32)
[31] = target: SGK110 (human) (UniProt P0C264)
Chain of SGK110 (human) (P0C264 whole entry, looked up): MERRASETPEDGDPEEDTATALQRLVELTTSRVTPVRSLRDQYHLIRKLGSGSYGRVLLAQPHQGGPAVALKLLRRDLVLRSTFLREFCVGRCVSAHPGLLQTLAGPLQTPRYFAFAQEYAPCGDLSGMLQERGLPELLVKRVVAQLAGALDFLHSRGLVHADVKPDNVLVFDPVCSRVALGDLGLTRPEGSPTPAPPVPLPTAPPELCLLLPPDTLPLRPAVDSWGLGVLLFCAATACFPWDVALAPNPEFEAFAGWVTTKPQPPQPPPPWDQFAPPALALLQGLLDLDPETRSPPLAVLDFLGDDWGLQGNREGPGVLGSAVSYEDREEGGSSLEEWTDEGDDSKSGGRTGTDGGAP

[32] = target: SRMS (human) (UniProt Q9H3Y6)
[33] = target: SRPK3 (human) (UniProt Q9UPE1)
[34] = target: STK17B (human) (UniProt O94768)
[35] = target: STK33 (human) (UniProt Q9BYT3)
[36] = target: STK39 (human) (UniProt Q9UEW8)
[37] = target: SYK (human) (UniProt P43405)
[38] = target: TGFBR2 (human) (UniProt P37173)
[39] = target: TTK (human) (UniProt P33981)
[40] = target: TYK2 JH2 pseudokinase (human) (UniProt P29597)

Row | SMILES | kinase still bound, per cent of control [1] [%] | kinase still bound, per cent of control [2] [%] | kinase still bound, per cent of control [3] [%] | kinase still bound, per cent of control [4] [%] | kinase still bound, per cent of control [5] [%] | kinase still bound, per cent of control [6] [%] | kinase still bound, per cent of control [7] [%] | kinase still bound, per cent of control [8] [%] | kinase still bound, per cent of control [9] [%] | kinase still bound, per cent of control [10] [%] | kinase still bound, per cent of control [11] [%] | kinase still bound, per cent of control [12] [%] | kinase still bound, per cent of control [13] [%] | kinase still bound, per cent of control [14] [%] | kinase still bound, per cent of control [15] [%] | kinase still bound, per cent of control [16] [%] | kinase still bound, per cent of control [17] [%] | kinase still bound, per cent of control [18] [%] | kinase still bound, per cent of control [19] [%] | kinase still bound, per cent of control [20] [%] | further results
1 | CN(C)C/C=C/C(=O)Nc1ccc(C(=O)Nc2cccc(Nc3nccc(-c4cccnc4)n3)c2)cc1 | 98 | 22 | 36 | 33 | 100 | 38 | 20 | 12 | 94 | 100 | 100 | 100 | 36 | 100 | 100 | 86 | 100 | 100 | 18 | 100 | kinase still bound, per cent of control [21]: 100%; kinase still bound, per cent of control [22]: 64%; kinase still bound, per cent of control [23]: 17%; kinase still bound, per cent of control [24]: 4%; kinase still bound, per cent of control [25]: 100%; kinase still bound, per cent of control [26]: 79%; kinase still bound, per cent of control [27]: 35%; kinase still bound, per cent of control [28]: 100%; kinase still bound, per cent of control [29]: 100%; kinase still bound, per cent of control [30]: 97%; kinase still bound, per cent of control [31]: 100%; kinase still bound, per cent of control [32]: 85%; kinase still bound, per cent of control [33]: 28%; kinase still bound, per cent of control [34]: 19%; kinase still bound, per cent of control [35]: 100%; kinase still bound, per cent of control [36]: 58%; kinase still bound, per cent of control [37]: 23%; kinase still bound, per cent of control [38]: 50%; kinase still bound, per cent of control [39]: 77%; kinase still bound, per cent of control [40]: 0.2%
2 | CCN1CCN(C(=O)Cc2ccc(Nc3ncc(F)c(Nc4ccc(C(=O)Nc5ccccc5Cl)cc4)n3)cc2)CC1 | 38 | 14 | 3.3 | 24 | 100 | 27 | 100 | 18 | 14 | 88 | 93 | 53 | 0.7 | 28 | 100 | 100 | 97 | 100 | 69 | 100 | kinase still bound, per cent of control [21]: 23%; kinase still bound, per cent of control [22]: 57%; kinase still bound, per cent of control [23]: 60%; kinase still bound, per cent of control [24]: 38%; kinase still bound, per cent of control [25]: 100%; kinase still bound, per cent of control [26]: 100%; kinase still bound, per cent of control [27]: 82%; kinase still bound, per cent of control [28]: 32%; kinase still bound, per cent of control [29]: 18%; kinase still bound, per cent of control [30]: 62%; kinase still bound, per cent of control [31]: 40%; kinase still bound, per cent of control [32]: 58%; kinase still bound, per cent of control [33]: 7.8%; kinase still bound, per cent of control [34]: 13%; kinase still bound, per cent of control [35]: 35%; kinase still bound, per cent of control [36]: 100%; kinase still bound, per cent of control [37]: 33%; kinase still bound, per cent of control [38]: 100%; kinase still bound, per cent of control [39]: 18%; kinase still bound, per cent of control [40]: 12%
